Source: the supplement of paper PMC10307832

Tests used:
Assay in all cases: relative viability (nuclei count vs DMSO), 5 days (fraction); higher = more cells survive
[1] = compound: COc1cc2c(Oc3ccc4[nH]c(C)cc4c3F)ncnc2cc1OCCCN1CCCC1 [Cediranib] + Cc1cc(Nc2cc(N3CCN(C)CC3)nc(Sc3ccc(NC(=O)C4CC4)cc3)n2)n[nH]1 [Tozasertib] (partner 0.1 µM)
In short: (§1)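 Medians of duplicate plates are given as relative viability. That measure is the nuclei count in treated wells divided by the count in vehicle wells. Counts were taken on 4× images of lung cancer cell lines in 1536-well plates, 5 days after pin-tool dosing the day after seeding with one drug alone or a fixed anchor-drug dose plus five library-drug doses (not always all listed) in √10 steps.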

[2] = compound: O=C(C[C@H]1NCCC[C@@H]1O)Cn1cnc2cc(Br)c(Cl)cc2c1=O (racemic) [Halofuginone] + CS(=O)(=O)CCNCc1ccc(-c2ccc3ncnc(Nc4ccc(OCc5cccc(F)c5)c(Cl)c4)c3c2)o1 [Lapatinib] (partner 2 µM)
In short: as §1

[3] = compound: COc1cc2c(Oc3ccc4[nH]c(C)cc4c3F)ncnc2cc1OCCCN1CCCC1 [Cediranib] + O=C(c1cc(Cc2n[nH]c(=O)c3ccccc23)ccc1F)N1CCN(C(=O)C2CC2)CC1 [Olaparib] (partner 8 µM)
In short: as §1

[4] = compound: COc1cc2c(Oc3ccc4[nH]c(C)cc4c3F)ncnc2cc1OCCCN1CCCC1 [Cediranib] + CC(C)C[C@H](NC(=O)[C@H](Cc1ccccc1)NC(=O)c1cnccn1)B(O)O [Bortezomib] (partner 0.002 µM)
In short: as §1

## UMC-11
[1]; first compound 0.04 µM
  relative viability: 0.213
[1]; first compound 0.4 µM
  relative viability: 0.201
[1]; first compound 4 µM
  relative viability: 0.2
[2]; first compound 0.001 µM
  relative viability: 1.02
[2]; first compound 0.003162 µM
  relative viability: 0.997
[2]; first compound 0.01 µM
  relative viability: 0.889
[2]; first compound 0.03162 µM
  relative viability: 0.924
[2]; first compound 0.1 µM
  relative viability: 0.7
[3]; first compound 0.04 µM
  relative viability: 0.373
[3]; first compound 0.1265 µM
  relative viability: 0.335
[3]; first compound 0.4 µM
  relative viability: 0.371
[3]; first compound 1.265 µM
  relative viability: 0.388
[3]; first compound 4 µM
  relative viability: 0.406
[4]; first compound 0.04 µM
  relative viability: 1.02
[4]; first compound 0.1265 µM
  relative viability: 0.442
[4]; first compound 0.4 µM
  relative viability: 0.683
[4]; first compound 1.265 µM
  relative viability: 0.628
[4]; first compound 4 µM
  relative viability: 0.547
